In patent US9266830B2, “Pesticidal arylpyrrolidines” (Bayer Intellectual Property GmbH, priority 2007, dated 2016):

What follows are molecules tested on Boophilus microplus (assay: Boophilus microplus test (injection)). Details: application rate 20 μg/animal, adult engorged females, after 7 days.
Type: in vivo
Procedure: Solvent: dimethyl sulfoxide
To produce a suitable preparation of active compound, 10 mg of active compound are dissolved in 0.5 ml solvent, and the concentrate is diluted with solvent to the desired concentration. Five adult engorged female ticks (Boophilus microplus) are injected with compound solution into the abdomen. Ticks are transferred into replica plates and incubated in a climate chamber for a period of time. Egg deposition of fertile eggs is monitored. After 7 days mortality in % is determined 100% means that all eggs are infertile; 0% means that all eggs are fertile.

| Compound | activity (100% means that all eggs are infertile) |
| --- | --- |
| N#Cc1ccc(N2CCC(c3cc(Cl)c(Cl)c(Cl)c3)(C(F)(F)F)C2)cc1C(F)(F)F (stereo not drawn) [7-12] | 100% |
| O=C(NCc1ccc(N2CCC(c3cc(C(F)(F)F)cc(C(F)(F)F)c3)(C(F)(F)F)C2)cc1[N+](=O)[O-])C1CC1 (stereo not drawn) [1-319] | 100% |
| O=C(NCc1ccc(N2CCC(c3cc(Cl)cc(Cl)c3)(C(F)(F)F)C2)cc1C(F)(F)F)NC1CC1 (stereo not drawn) [1-224] | 100% |
| C=CC[S+]([O-])CC(=O)NCc1ccc(N2CCC(c3cc(C(F)(F)F)cc(C(F)(F)F)c3)(C(F)(F)F)C2)cc1C(F)(F)F (stereo not drawn) [1-970] | 100% |
| O=C(NCc1ccc(N2CCC(c3cc(Cl)cc(Cl)c3)(C(F)(F)F)C2)cc1C(F)(F)F)C1CC1 (stereo not drawn) [1-146] | 100% |
| CS(=O)(=O)CC(=O)NCc1ccc(N2CCC(c3cc(C(F)(F)F)cc(C(F)(F)F)c3)(C(F)(F)F)C2)cc1C(F)(F)F (stereo not drawn) [1-968] | 100% |
| CC[S+]([O-])CC(=O)NCc1ccc(N2CCC(c3cc(Cl)cc(Cl)c3)(C(F)(F)F)C2)cc1C(F)(F)F (stereo not drawn) [1-500] | 100% |
| O=C(NCC(F)(F)F)c1sc(N2CCC(c3cc(Cl)cc(Cl)c3)(C(F)(F)F)C2)nc1C(F)(F)F (stereo not drawn) [4-8] | 100% |
| CC(NC(=O)NCc1ccc(N2CCC(c3cc(Cl)cc(Cl)c3)(C(F)(F)F)C2)cc1Cl)C(F)(F)F (stereo not drawn) [1-442] | 100% |
| N#CCC(=O)NCc1ccc(N2CCC(c3cc(Cl)cc(Cl)c3)(C(F)(F)F)C2)cc1C(F)(F)F (stereo not drawn) [1-183] | 100% |
| CN(Cc1ccc(N2CCC(c3cc(Cl)cc(Cl)c3)(C(F)(F)F)C2)cc1Cl)C(=O)CC(F)(F)F (stereo not drawn) [1-75] | 100% |
| O=C(NCc1ccc(N2CCC(c3cc(Cl)cc(Cl)c3)(C(F)(F)F)C2)cc1Cl)NC1CC1 (stereo not drawn) [1-81] | 100% |
| CC(NC(=O)NCc1ccc(N2CCC(c3cc(Cl)cc(Cl)c3)(C(F)(F)F)C2)cc1Cl)c1nccs1 (stereo not drawn) [1-446] | 100% |
| O=C(CC(F)(F)F)NCc1cnc(N2CCC(c3cc(Cl)c(Cl)c(Cl)c3)(C(F)(F)F)C2)nc1C(F)(F)F (stereo not drawn) [3-144] | 100% |
| O=C(CC(F)(F)F)NCc1cnc(N2CCC(c3cc(Cl)c(Cl)c(Cl)c3)(C(F)(F)F)C2)cc1C(F)(F)F (stereo not drawn) [1-380] | 100% |
| O=C(NCc1ccccn1)c1cnc(N2CCC(c3cc(C(F)(F)F)cc(C(F)(F)F)c3)(C(F)(F)F)C2)nc1C(F)(F)F (stereo not drawn) [2-35] | 100% |
| C=CCS(=O)(=O)CC(=O)NCc1ccc(N2CCC(c3cc(Cl)cc(Cl)c3)(C(F)(F)F)C2)cc1C(F)(F)F (stereo not drawn) [1-505] | 100% |
| O=C(NCc1ccc(N2CCC(c3cc(Cl)c(Cl)c(Cl)c3)(C(F)(F)F)C2)cc1Cl)C1CC1 (stereo not drawn) [1-339] | 100% |
| COC(=O)NCc1ccc(N2CCC(c3cc(C(F)(F)F)cc(C(F)(F)F)c3)(C(F)(F)F)C2)cc1C(F)(F)F (stereo not drawn) [1-298] | 100% |
| O=C(NCc1sc(N2CCC(c3cc(Cl)c(Cl)c(Cl)c3)(C(F)(F)F)C2)nc1C(F)(F)F)C1CC1 (stereo not drawn) [5-143] | 100% |
| C=CC(=O)NCc1ccc(N2CCC(c3cc(Cl)cc(Cl)c3)(C(F)(F)F)C2)cc1C(F)(F)F (stereo not drawn) [1-173] | 100% |

| Compound | activity (100% means that all eggs are infertile) |
| --- | --- |
| O=C(NCc1ccc(N2CCC(c3cc(Cl)c(Cl)c(Cl)c3)(C(F)(F)F)C2)cc1Br)C1CC1 (stereo not drawn) [1-346] | 100% |
| CCNC(=O)N(C)Cc1ccc(N2CCC(c3cc(Cl)cc(Cl)c3)(C(F)(F)F)C2)cc1Cl (stereo not drawn) [1-113] | 100% |
| O=C(NCc1cnc(N2CCC(c3cc(C(F)(F)F)cc(C(F)(F)F)c3)(C(F)(F)F)C2)nc1C(F)(F)F)C1CC1 (stereo not drawn) [3-149] | 100% |
| CSCC(=O)NCc1ccc(N2CCC(c3cc(Cl)cc(Cl)c3)(C(F)(F)F)C2)cc1Cl (stereo not drawn) [1-42] | 100% |
| CC(=O)NCc1cnc(N2CCC(c3cc(Cl)c(Cl)c(Cl)c3)(C(F)(F)F)C2)nc1C(F)(F)F (stereo not drawn) [3-141] | 100% |
| CC(=O)NCc1ccc(N2CCC(c3cc(C(F)(F)F)cc(C(F)(F)F)c3)(C(F)(F)F)C2)cc1[N+](=O)[O-] (stereo not drawn) [1-317] | 100% |
| C[S+]([O-])CC(=O)NCc1ccc(N2CCC(c3cc(C(F)(F)F)cc(C(F)(F)F)c3)(C(F)(F)F)C2)cc1C(F)(F)F (stereo not drawn) [1-967] | 100% |
| CCNC(=O)NCc1cnc(N2CCC(c3cc(C(F)(F)F)cc(C(F)(F)F)c3)(C(F)(F)F)C2)nc1C(F)(F)F (stereo not drawn) [3-151] | 100% |
| C=CCC(=O)NCc1ccc(N2CCC(c3cc(Cl)cc(Cl)c3)(C(F)(F)F)C2)cc1Cl (stereo not drawn) [1-36] | 100% |
| C#CCNC(=O)NCc1ccc(N2CCC(c3cc(Cl)cc(Cl)c3)(C(F)(F)F)C2)cc1Cl (stereo not drawn) [1-88] | 100% |
| C=CCS(=O)(=O)CC(=O)NCc1ccc(N2CCC(c3cc(C(F)(F)F)cc(C(F)(F)F)c3)(C(F)(F)F)C2)cc1C(F)(F)F (stereo not drawn) [1-971] | 100% |
| CCC(=O)NC1CCc2cc(N3CCC(c4cc(Cl)cc(Cl)c4)(C(F)(F)F)C3)ccc21 (stereo not drawn) [6-4] | 100% |
| CCNC(=O)NCc1ccc(N2CCC(c3cc(Cl)c(Cl)c(Cl)c3)(C(F)(F)F)C2)cc1C(F)(F)F (stereo not drawn) [1-330] | 100% |
| O=C(CC(F)(F)F)NCc1cnc(N2CCC(c3cc(C(F)(F)F)cc(C(F)(F)F)c3)(C(F)(F)F)C2)nc1C(F)(F)F (stereo not drawn) [3-150] | 100% |
| CC(=O)OCC(=O)NCc1ccc(N2CCC(c3cc(Cl)cc(Cl)c3)(C(F)(F)F)C2)cc1C(F)(F)F (stereo not drawn) [1-188] | 100% |
| CS(=O)(=O)CC(=O)NCc1ccc(N2CCC(c3cc(Cl)c(Cl)c(Cl)c3)(C(F)(F)F)C2)cc1C(F)(F)F (stereo not drawn) [1-730] | 100% |
| O=C(CC(F)(F)F)NCc1cnc(N2CCC(c3cc(C(F)(F)F)cc(C(F)(F)F)c3)(C(F)(F)F)C2)cc1C(F)(F)F (stereo not drawn) [1-386] | 100% |
| CCNC(=O)NCc1cnc(N2CCC(c3cc(Cl)c(Cl)c(Cl)c3)(C(F)(F)F)C2)cc1C(F)(F)F (stereo not drawn) [1-381] | 100% |
| CC(C)C(=O)NCc1ccc(N2CCC(c3cc(Cl)cc(Cl)c3)(C(F)(F)F)C2)cc1Cl (stereo not drawn) [1-3] | 100% |
| CC(C)C(=O)NCc1ccc(N2CCC(c3cc(Cl)cc(Cl)c3)(C(F)(F)F)C2)cc1C(F)(F)F (stereo not drawn) [1-145] | 100% |
| C=CCSCC(=O)NCc1ccc(N2CCC(c3cc(C(F)(F)F)cc(C(F)(F)F)c3)(C(F)(F)F)C2)cc1C(F)(F)F (stereo not drawn) [1-969] | 100% |
